# Laboratory results: patent publication US20250163104A1, “MACROCYCLIC IMMUNOMODULATORS” (priority 2021, published 2025)
# Where a SMILES comes first, the peptide text is derived from it. Bridges are numbered along the chain shown (N, C = ends). [ ]: non-standard residue; d: D form. The star is where a group is joined. Phe(3-CF3) = N[C@@H](Cc1cccc(C(F)(F)F)c1)C(=O)O; Ala(morpholin-4-yl) = N[C@@H](CN1CCOCC1)C(=O)O; Phe(4-COOH) = N[C@@H](Cc1ccc(C(=O)O)cc1)C(=O)O; Bip = N[C@@H](Cc1ccc(-c2ccccc2)cc1)C(=O)O; Phe(4-NH2) = Nc1ccc(C[C@H](N)C(=O)O)cc1; Phe(3-Me) = Cc1cccc(C[C@H](N)C(=O)O)c1; 2Nal = N[C@@H](Cc1ccc2ccccc2c1)C(=O)O; Val(3-OH) = CC(C)(O)[C@H](N)C(=O)O; 3Thi = N[C@@H](Cc1ccsc1)C(=O)O; Cha = N[C@@H](CC1CCCCC1)C(=O)O; Cit = NC(=O)NCCC[C@H](N)C(=O)O; Carboxymethyl = O=C(O)C*; Orn = NCCC[C@H](N)C(=O)O; Pra = C#CC[C@H](N)C(=O)O; Dab = NCC[C@H](N)C(=O)O; Dap = NC[C@H](N)C(=O)O
# Biological target: T1, human PD-1 / PD-L1-Ig binding on Jurkat cell line over-expressing human PD-1 (Jurkat-PD-1) (Homo sapiens, UniProt Q15116)
# T1 construct: expressed in transfected cells; host or cells: Jurkat
# T1 sequence (Q15116 25-288): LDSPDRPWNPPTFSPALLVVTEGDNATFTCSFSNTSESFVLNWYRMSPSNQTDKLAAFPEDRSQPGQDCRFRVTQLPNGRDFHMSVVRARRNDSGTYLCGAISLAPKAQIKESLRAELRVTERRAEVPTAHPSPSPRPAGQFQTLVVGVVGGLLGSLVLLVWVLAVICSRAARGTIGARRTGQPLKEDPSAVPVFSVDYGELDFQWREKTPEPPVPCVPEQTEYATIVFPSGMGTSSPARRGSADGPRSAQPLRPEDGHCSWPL
# Assay: Jurkat-PD-1 Cell Binding High-Content Screening Assay (CBA)
# Type: cell-based
# Conditions: Jurkat HPD1_PDL1 IC50, Jurkat-PD-1 cells, PE-labeled PD-L1-Ig 20 nM final
# Method in brief: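 PE-PD-L1-Ig 20 nM final; cells in DMEM/10% FCS; cpd pre-incubation 2 h, 37° C; ligand 1 h; PFA fix + Hoechst 33342; high-content imaging read-out.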
row,Structure (SMILES),IC50
1,CC[C@H](C)[C@@H]1NC(=O)[C@H](Cc2ccc(-c3ccccc3)cc2)NC(=O)[C@H](C(C)C)NC(=O)[C@H](Cc2cccc(C)c2)NC(=O)[C@H](CC(=O)O)NC(=O)[C@H](Cc2ccc(OCC(=O)O)cc2)NC(=O)[C@H](Cc2ccncc2)NC(=O)CSC[C@@H](C(=O)N[C@@H](C)C(N)=O)NC(=O)[C@H]([C@@H](C)O)NC(=O)[C@H](C(C)C)NC(=O)[C@H](CC(C)C)NC(=O)[C@H](CCN)NC(=O)[C@@H](CC(C)C)NC(=O)[C@H](CCCN)NC1=O [Compound 1186],0.0058 µM

# Same assay, conditions: Jurkat-PD-1 cells, PE-labeled PD-L1-Ig 20 nM final; read-out: Jurkat HPD1_PDL1 IC50
row,IC50,Structure (SMILES)
1,0.0037 µM,Cc1cccc(C[C@@H]2NC(=O)[C@H](CC(=O)O)NC(=O)[C@H](Cc3ccc(OCC(=O)O)cc3)NC(=O)[C@H](Cc3ccsc3)NC(=O)CSC[C@@H](C(=O)N[C@@H](CCN)C(N)=O)NC(=O)[C@H](CO)NC(=O)[C@H](C(C)(C)O)NC(=O)[C@H](CC3CCCCC3)NC(=O)[C@H](CCN)NC(=O)[C@@H](CC(C)C)NC(=O)[C@H](CCCN)NC(=O)[C@H](Cc3ccc(OCC(=O)O)cc3)NC(=O)[C@H](Cc3ccc(-c4ccccc4)cc3)NC(=O)[C@H](Cc3ccc(OCC(=O)O)cc3)NC2=O)c1 [Compound 2615] ({CH2CO}-[3Thi]Y(Carboxymethyl)D[Phe(3-Me)]Y(Carboxymethyl)[Bip]Y(Carboxymethyl)[Orn][dL][Dab][Cha][Val(3-OH)]SC[Dab]-NH2; thioether N-14)
2,0.0052 µM,C#CC[C@H](NC(=O)[C@H](CCN)NC(=O)[C@@H]1CSCC(=O)N[C@@H](CCN)C(=O)N[C@@H](Cc2ccc(OCC(=O)O)cc2)C(=O)N[C@@H](CC(=O)O)C(=O)N[C@@H](Cc2cccc(C)c2)C(=O)N[C@@H](Cc2ccc(OCC(=O)O)cc2)C(=O)N[C@@H](Cc2ccc(-c3ccccc3)cc2)C(=O)N[C@@H](Cc2ccc(OCC(=O)O)cc2)C(=O)N[C@@H](CCCN)C(=O)N[C@H](CC(C)C)C(=O)N[C@@H](CCN)C(=O)N[C@@H](CC2CCCCC2)C(=O)N[C@@H](C(C)(C)O)C(=O)N[C@@H](CO)C(=O)N1)C(N)=O [Compound 1851] ({CH2CO}-[Dab]Y(Carboxymethyl)D[Phe(3-Me)]Y(Carboxymethyl)[Bip]Y(Carboxymethyl)[Orn][dL][Dab][Cha][Val(3-OH)]SC[Dab][Pra]-NH2; thioether N-14)
3,0.0366 µM,CC(C)C[C@@H]1NC(=O)[C@H](Cc2c[nH]c3ccccc23)NC(=O)[C@H](CC(=O)O)NC(=O)[C@H](Cc2ccc(O)cc2)NC(=O)[C@H](Cc2ccccc2)NC(=O)CSC[C@@H](C(=O)N[C@@H](C)C(N)=O)NC(=O)[C@H](CO)NC(=O)[C@H](C(C)C)NC(=O)[C@H](CC(C)C)NC(=O)[C@H](CC(N)=O)NC(=O)[C@@H](CC(C)C)NC(=O)[C@H](CCCN)NC(=O)[C@H](CCCNC(N)=O)NC(=O)[C@H](Cc2ccc(-c3ccccc3)cc2)NC1=O [Compound 1234] ({CH2CO}-FYDWL[Bip][Cit][Orn][dL]NLVSCA-NH2; thioether N-14)
4,0.012 µM,Cc1cccc(C[C@@H]2NC(=O)[C@H](CC(=O)O)NC(=O)[C@H](Cc3ccc(OCC(=O)O)cc3)NC(=O)[C@H](CN)NC(=O)CSC[C@@H](C(=O)N[C@@H](C)C(N)=O)NC(=O)[C@H]([C@@H](C)O)NC(=O)[C@H](C(C)C)NC(=O)[C@H](CC3CCCCC3)NC(=O)[C@H](CCN)NC(=O)[C@@H](CC(C)C)NC(=O)[C@H](CCCN)NC(=O)[C@H](CN)NC(=O)[C@H](Cc3ccc(-c4ccccc4)cc3)NC(=O)[C@H](C(C)C)NC2=O)c1 [Compound 1310] ({CH2CO}-[Dap]Y(Carboxymethyl)D[Phe(3-Me)]V[Bip][Dap][Orn][dL][Dab][Cha]VTCA-NH2; thioether N-14)
5,0.097 µM,Cc1cccc(C[C@@H]2NC(=O)[C@H](CC(=O)O)NC(=O)[C@H](Cc3ccc(O)cc3)NC(=O)[C@H](CC(N)=O)NC(=O)CSC[C@@H](C(N)=O)NC(=O)[C@H]([C@@H](C)O)NC(=O)[C@H](C(C)C)NC(=O)[C@H](CC(C)C)NC(=O)[C@H](CCN)NC(=O)[C@@H](CC(C)C)NC(=O)[C@H](CCCN)NC(=O)[C@H](C(C)C)NC(=O)[C@H](Cc3ccc(-c4ccccc4)cc3)NC(=O)[C@H](C(C)C)NC2=O)c1 [Compound 1648] ({CH2CO}-NYD[Phe(3-Me)]V[Bip]V[Orn][dL][Dab]LVTC-NH2; thioether N-14)
6,0.0147 µM,CC(C)C[C@H]1NC(=O)[C@H](CCCN)NC(=O)[C@H](CCC(=O)O)NC(=O)[C@H](Cc2ccc(-c3ccccc3)cc2)NC(=O)[C@H](C(C)C)NC(=O)[C@H](Cc2c[nH]c3ccccc23)NC(=O)[C@H](CC(=O)O)NC(=O)[C@H](Cc2ccc(O)cc2)NC(=O)[C@H](CC(N)=O)NC(=O)CSC[C@@H](C(=O)N[C@@H](C)C(N)=O)NC(=O)[C@H]([C@@H](C)O)NC(=O)[C@H](C(C)C)NC(=O)[C@H](CC2CCCCC2)NC(=O)[C@H](CCN)NC1=O [Compound 1424] ({CH2CO}-NYDWV[Bip]E[Orn][dL][Dab][Cha]VTCA-NH2; thioether N-14)
7,0.0064 µM,Cc1cccc(C[C@@H]2NC(=O)[C@H](CC(=O)O)NC(=O)[C@H](Cc3ccc(OCC(=O)O)cc3)NC(=O)[C@H](Cc3ccsc3)NC(=O)CSC[C@@H](C(=O)N[C@H](C)C(N)=O)NC(=O)[C@H](CO)NC(=O)[C@H](C(C)(C)O)NC(=O)[C@H](CC3CCCCC3)NC(=O)[C@H](CCN)NC(=O)[C@@H](CC(C)C)NC(=O)[C@H](CCCN)NC(=O)[C@H](Cc3ccc(OCC(=O)O)cc3)NC(=O)[C@H](Cc3ccc(-c4ccccc4)cc3)NC(=O)[C@H](Cc3ccc(OCC(=O)O)cc3)NC2=O)c1 [Compound 2654] ({CH2CO}-[3Thi]Y(Carboxymethyl)D[Phe(3-Me)]Y(Carboxymethyl)[Bip]Y(Carboxymethyl)[Orn][dL][Dab][Cha][Val(3-OH)]SC[dA]-NH2; thioether N-14)
8,0.0046 µM,CC[C@H](C)[C@@H]1NC(=O)[C@H](Cc2ccc(-c3ccccc3)cc2)NC(=O)[C@H](C(C)C)NC(=O)[C@H](Cc2cccc(C)c2)NC(=O)[C@H](CC(=O)O)NC(=O)[C@H](Cc2ccc(C(=O)O)cc2)NC(=O)[C@H](Cc2ccc(OCC(=O)O)cc2)NC(=O)CSC[C@@H](C(=O)N[C@@H](C)C(N)=O)NC(=O)[C@H]([C@@H](C)O)NC(=O)[C@H](C(C)C)NC(=O)[C@H](CC(C)C)NC(=O)[C@H](CCN)NC(=O)[C@@H](CC(C)C)NC(=O)[C@H](CCCN)NC1=O [Compound 1249] ({CH2CO}-Y(Carboxymethyl)[Phe(4-COOH)]D[Phe(3-Me)]V[Bip]I[Orn][dL][Dab]LVTCA-NH2; thioether N-14)
9,0.015 µM,CC(C)C[C@@H]1NC(=O)[C@H](CCN)NC(=O)[C@@H](CC(C)C)NC(=O)[C@H](CCCN)NC(=O)[C@H](C(C)C)NC(=O)[C@H](Cc2ccc(-c3ccccc3)cc2)NC(=O)[C@H](C(C)C)NC(=O)[C@H](Cc2c[nH]c3ccccc23)NC(=O)[C@H](CC(=O)O)NC(=O)[C@H](Cc2ccc(O)cc2)NC(=O)[C@H](CC(N)=O)NC(=O)CSC[C@@H](C(=O)N[C@@H](C)C(N)=O)NC(=O)[C@H](CO)NC(=O)[C@H](C(C)C)NC1=O [Compound 1127] ({CH2CO}-NYDWV[Bip]V[Orn][dL][Dab]LVSCA-NH2; thioether N-14)
10,0.0023 µM,CC(C)C[C@H]1NC(=O)[C@H](CCCN)NC(=O)[C@H](Cc2ccc(C(=O)O)cc2)NC(=O)[C@H](Cc2ccc(-c3ccccc3)cc2)NC(=O)[C@H](Cc2ccc3ccccc3c2)NC(=O)[C@H](Cc2cccc(C(F)(F)F)c2)NC(=O)[C@H](CC(=O)O)NC(=O)[C@H](Cc2ccc(C(=O)O)cc2)NC(=O)[C@H](CN2CCOCC2)NC(=O)CSC[C@@H](C(=O)N[C@@H](CCN)C(N)=O)NC(=O)[C@H](CCC(=O)O)NC(=O)[C@H](C(C)C)NC(=O)[C@H](CC2CCCCC2)NC(=O)[C@H](CCN)NC1=O [Example 2738] ({CH2CO}-[Ala(morpholin-4-yl)][Phe(4-COOH)]D[Phe(3-CF3)][2Nal][Bip][Phe(4-COOH)][Orn][dL][Dab][Cha]VEC[Dab]-NH2; thioether N-14)
11,0.0101 µM,C#CC[C@H](NC(=O)[C@H](CCN)NC(=O)[C@@H]1CSCC(=O)N[C@@H](CCN)C(=O)N[C@@H](Cc2ccc(OCC(=O)O)cc2)C(=O)N[C@@H](CC(=O)O)C(=O)N[C@@H](Cc2cccc(C)c2)C(=O)N[C@@H](Cc2ccc(C(=O)O)cc2)C(=O)N[C@@H](Cc2ccc(-c3ccccc3)cc2)C(=O)N[C@@H](Cc2ccc(C(=O)O)cc2)C(=O)N[C@@H](CCCN)C(=O)N[C@H](CC(C)C)C(=O)N[C@@H](CCN)C(=O)N[C@@H](CC2CCCCC2)C(=O)N[C@@H](C(C)C)C(=O)N[C@@H](CCC(=O)O)C(=O)N1)C(=O)O [Compound 1823] ({CH2CO}-[Dab]Y(Carboxymethyl)D[Phe(3-Me)][Phe(4-COOH)][Bip][Phe(4-COOH)][Orn][dL][Dab][Cha]VEC[Dab][Pra]-OH; thioether N-14)
12,0.0207 µM,CC(C)C[C@@H]1NC(=O)[C@H](CCCCN)NC(=O)[C@@H](CC(C)C)NC(=O)[C@H](CCCN)NC(=O)[C@H](C(C)C)NC(=O)[C@H](Cc2ccc(-c3ccccc3)cc2)NC(=O)[C@H](C(C)C)NC(=O)[C@H](Cc2c[nH]c3ccccc23)NC(=O)[C@H](CC(=O)O)NC(=O)[C@H](Cc2ccc(O)cc2)NC(=O)[C@H](CC(N)=O)NC(=O)CSC[C@@H](C(=O)N[C@@H](C)C(N)=O)NC(=O)[C@H](CO)NC(=O)[C@H](C(C)C)NC1=O [Compound 1132] ({CH2CO}-NYDWV[Bip]V[Orn][dL]KLVSCA-NH2; thioether N-14)
13,0.801 µM,CC(C)C[C@H]1NC(=O)[C@H](CCCN)NC(=O)[C@H](CCC(=O)O)NC(=O)[C@H](Cc2ccc(-c3ccccc3)cc2)NC(=O)[C@H](C(C)C)NC(=O)[C@H](Cc2c[nH]c3ccccc23)NC(=O)[C@H](CC(=O)O)NC(=O)[C@H](Cc2ccc(OCC(=O)O)cc2)NC(=O)[C@H](CN)NC(=O)CSC[C@@H](C(=O)N[C@@H](C)C(N)=O)NC(=O)[C@H]([C@@H](C)O)NC(=O)[C@H](C(C)C)NC(=O)[C@H](Cc2ccc(N)cc2)NC(=O)[C@H](CCN)NC1=O [Compound 1473] ({CH2CO}-[Dap]Y(Carboxymethyl)DWV[Bip]E[Orn][dL][Dab][Phe(4-NH2)]VTCA-NH2; thioether N-14)
